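Method: 48-hour compound exposure of cells in 96-well plates, five concentrations, linear interpolation of endpoints. At the GI50, growth is halved.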 Activity calls are given as the source filed them. Cut-off read from the data, not from the text of the source: active = GI50 up to about 1.1 µM and inactive = higher.
Experiments:
Experiment in all cases: inhibition of tumour cell growth, NCI panel, 48 h
786-0 = test system: 786-0
ACHN = test system: ACHN
CAKI-1 = test system: CAKI-1
CCRF-CEM = test system: CCRF-CEM
COLO 205 = test system: COLO 205
HL-60 = test system: HL-60
HOP-92 = test system: HOP-92
HT-29 = test system: HT-29
KM12 = test system: KM12
OVCAR-4 = test system: OVCAR-4
SF-268 = test system: SF-268
SK-OV-3 = test system: SK-OV-3
SN12C = test system: SN12C
UO-31 = test system: UO-31

O=C(O)CCNS(=O)(=O)c1ccc2ccccc2c1
GI50 (786-0): > 100 µM (inactive)
GI50 (ACHN): > 100 µM (inactive)
GI50 (CAKI-1): > 100 µM (inactive)
GI50 (CCRF-CEM): > 100 µM (inactive)
GI50 (COLO 205): > 100 µM (inactive)
GI50 (HL-60): > 100 µM (inactive)
GI50 (HOP-92): > 100 µM (inactive)
GI50 (HT-29): > 100 µM (inactive)
GI50 (KM12): > 100 µM (inactive)
GI50 (OVCAR-4): > 100 µM (inactive)
GI50 (SF-268): > 100 µM (inactive)
GI50 (SK-OV-3): > 100 µM (inactive)
GI50 (SN12C): > 100 µM (inactive)
GI50 (UO-31): > 100 µM (inactive)

CC(C)(C)OC(=O)NCC(=O)OCc1ccccc1
GI50 (786-0): > 100 µM (inactive)
GI50 (ACHN): > 100 µM (inactive)
GI50 (CAKI-1): > 10 µM (inactive)
GI50 (CCRF-CEM): > 100 µM (inactive)
GI50 (COLO 205): > 100 µM (inactive)
GI50 (HL-60): > 100 µM (inactive)
GI50 (HOP-92): > 100 µM (inactive)
GI50 (HT-29): > 100 µM (inactive)
GI50 (KM12): > 100 µM (inactive)
GI50 (SF-268): > 100 µM (inactive)
GI50 (SK-OV-3): > 100 µM (inactive)
GI50 (SN12C): > 100 µM (inactive)
GI50 (UO-31): > 100 µM (inactive)

c1nc2cscc2c2cscc12
GI50 (786-0): > 100 µM (inactive)
GI50 (ACHN): > 100 µM (inactive)
GI50 (CAKI-1): 42.8 µM (inactive)
GI50 (CCRF-CEM): > 100 µM (inactive)
GI50 (HL-60): > 100 µM (inactive)
GI50 (HOP-92): 14.7 µM (inactive)
GI50 (HT-29): > 100 µM (inactive)
GI50 (KM12): > 100 µM (inactive)
GI50 (OVCAR-4): > 100 µM (inactive)
GI50 (SF-268): > 100 µM (inactive)
GI50 (SK-OV-3): 37 µM (inactive)
GI50 (SN12C): > 100 µM (inactive)
GI50 (UO-31): > 100 µM (inactive)

O=C(OCCOCBr)c1ccccc1
GI50 (786-0): > 100 µM (inactive)
GI50 (ACHN): > 100 µM (inactive)
GI50 (CAKI-1): > 100 µM (inactive)
GI50 (CCRF-CEM): > 100 µM (inactive)
GI50 (COLO 205): > 100 µM (inactive)
GI50 (HL-60): > 100 µM (inactive)
GI50 (HOP-92): > 100 µM (inactive)
GI50 (HT-29): > 100 µM (inactive)
GI50 (KM12): > 100 µM (inactive)
GI50 (OVCAR-4): > 100 µM (inactive)
GI50 (SF-268): > 100 µM (inactive)
GI50 (SK-OV-3): > 100 µM (inactive)
GI50 (SN12C): > 100 µM (inactive)
GI50 (UO-31): > 100 µM (inactive)

NCCn1cnc2nc(NC(=O)c3ccccc3)[nH]c(=O)c21
GI50 (786-0): > 100 µM (inactive)
GI50 (ACHN): > 100 µM (inactive)
GI50 (COLO 205): > 100 µM (inactive)
GI50 (HL-60): > 100 µM (inactive)
GI50 (HOP-92): > 100 µM (inactive)
GI50 (HT-29): > 100 µM (inactive)
GI50 (KM12): > 100 µM (inactive)
GI50 (SF-268): > 100 µM (inactive)
GI50 (SN12C): > 100 µM (inactive)
GI50 (UO-31): > 100 µM (inactive)

O=c1c2c(nc3n1CCC3)sc1c(O)c(Br)ccc12
GI50 (786-0): 17.5 µM (inactive)
GI50 (ACHN): 14.6 µM (inactive)
GI50 (CAKI-1): > 100 µM (inactive)
GI50 (CCRF-CEM): 15.5 µM (inactive)
GI50 (COLO 205): 11.8 µM (inactive)
GI50 (HL-60): 14.7 µM (inactive)
GI50 (HOP-92): > 100 µM (inactive)
GI50 (HT-29): 12.5 µM (inactive)
GI50 (KM12): 14.3 µM (inactive)
GI50 (OVCAR-4): 17.7 µM (inactive)
GI50 (SF-268): 60.4 µM (inactive)
GI50 (SK-OV-3): 23.9 µM (inactive)
GI50 (SN12C): 16.4 µM (inactive)
GI50 (UO-31): 18.8 µM (inactive)

CCOC(=O)c1oc2c(OC)cc(Cl)c3c2c1CCC3
GI50 (786-0): 30.8 µM (inactive)
GI50 (ACHN): 30.3 µM (inactive)
GI50 (CCRF-CEM): > 100 µM (inactive)
GI50 (COLO 205): > 100 µM (inactive)
GI50 (HL-60): > 100 µM (inactive)
GI50 (HOP-92): 20.7 µM (inactive)
GI50 (HT-29): > 100 µM (inactive)
GI50 (KM12): > 100 µM (inactive)
GI50 (OVCAR-4): 38.6 µM (inactive)
GI50 (SF-268): > 100 µM (inactive)
GI50 (SK-OV-3): 50.8 µM (inactive)
GI50 (SN12C): 64.7 µM (inactive)
GI50 (UO-31): 28.6 µM (inactive)

COc1ccc2c(c1OCC(=O)O)C(=O)C(CCC(=O)O)CC2 (stereo unspecified)
GI50 (786-0): > 100 µM (inactive)
GI50 (ACHN): > 100 µM (inactive)
GI50 (CAKI-1): > 100 µM (inactive)
GI50 (CCRF-CEM): > 100 µM (inactive)
GI50 (COLO 205): > 100 µM (inactive)
GI50 (HL-60): > 100 µM (inactive)
GI50 (HT-29): > 100 µM (inactive)
GI50 (OVCAR-4): > 100 µM (inactive)
GI50 (SK-OV-3): > 100 µM (inactive)
GI50 (SN12C): > 100 µM (inactive)

O=[N+]([O-])c1cc(I)cc(/C=N/NS(=O)(=O)c2ccc(Cl)cc2)c1O
GI50 (786-0): 21.1 µM (inactive)
GI50 (ACHN): 22.8 µM (inactive)
GI50 (CAKI-1): 22.3 µM (inactive)
GI50 (CCRF-CEM): 25.4 µM (inactive)
GI50 (COLO 205): 18.9 µM (inactive)
GI50 (HL-60): 27.7 µM (inactive)
GI50 (HOP-92): 20.5 µM (inactive)
GI50 (HT-29): 16.3 µM (inactive)
GI50 (KM12): 18.2 µM (inactive)
GI50 (OVCAR-4): 30.5 µM (inactive)
GI50 (SF-268): 36.9 µM (inactive)
GI50 (SK-OV-3): 24.7 µM (inactive)
GI50 (SN12C): 23.7 µM (inactive)
GI50 (UO-31): 20.1 µM (inactive)

CCC(O)C1Cc2c(C)cc3c(c2O1)C(=O)c1ccccc1C3=O (stereo unspecified)
GI50 (786-0): 25.8 µM (inactive)
GI50 (ACHN): 27.8 µM (inactive)
GI50 (CAKI-1): 24.5 µM (inactive)
GI50 (CCRF-CEM): 31.3 µM (inactive)
GI50 (COLO 205): 16.1 µM (inactive)
GI50 (HL-60): 17.9 µM (inactive)
GI50 (HOP-92): 29.4 µM (inactive)
GI50 (HT-29): 39.4 µM (inactive)
GI50 (KM12): 25.8 µM (inactive)
GI50 (OVCAR-4): 33.3 µM (inactive)
GI50 (SF-268): 25.1 µM (inactive)
GI50 (SK-OV-3): 22.6 µM (inactive)
GI50 (SN12C): 35.3 µM (inactive)
GI50 (UO-31): 21 µM (inactive)

Cc1nn(C)c(=S)n(C)c1=O
GI50 (786-0): 3.27 µM (inactive)
GI50 (ACHN): 0.387 µM (active)
GI50 (CCRF-CEM): 1.55 µM (inactive)
GI50 (COLO 205): 4.16 µM (inactive)
GI50 (HL-60): 1.31 µM (inactive)
GI50 (HOP-92): 0.291 µM (active)
GI50 (HT-29): 24.8 µM (inactive)
GI50 (OVCAR-4): 5.83 µM (inactive)
GI50 (SF-268): 0.56 µM (active)
GI50 (SK-OV-3): 14.7 µM (inactive)
GI50 (SN12C): 0.927 µM (active)
GI50 (UO-31): 0.229 µM (active)
